Tested on: HUVEC/MSC spheroids viability
Assay: Human HUVEC/MSC cell line growth inhibition [KRAS2];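 for viability, T/C: percent of DMSO vehicle control luminescence so 100% = untreated viability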
Conditions: for viability, T/C: stronger effect = lower value
Method in brief: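 Spheroids of pooled-donor HUVEC and hMSC (passage ≤5) without tumour cells were treated with KRAS-pathway inhibitors alone and combined with targeted agents. Top concentration was at or near clinical Cmax, or 10 microM when Cmax was unknown, descending in half-log steps.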

[1] = curve of first compound, second compound 0.0316 µM
[2] = curve of first compound, second compound 0.1 µM
[3] = curve of first compound, second compound 0.316 µM
[4] = curve of first compound, second compound 1 µM
[5] = curve of first compound, second compound 3.16 µM
[6] = curve of first compound, second compound 10 µM

SMILES: CCNC(=O)CC1N=C(c2ccc(Cl)cc2)c2cc(OC)ccc2-n2c(C)nnc21 (centres undefined)
- viability, T/C (compound 0.0316 µM): 87.2% [middle of 5 runs]
- viability, T/C (compound 0.1 µM): 86.6% [middle of 5 runs]
- IC50 (curve of compound): > 10000 nM

SMILES: CC(=O)OC12COC1CC(O)C1(C)C(=O)C(O)C3=C(C)C(OC(=O)C(O)C(NC(=O)OC(C)(C)C)c4ccccc4)CC(O)(C(OC(=O)c4ccccc4)C21)C3(C)C (centres undefined) + CC1OCC2(CCN(c3cnc(Sc4ccnc(N)c4Cl)c(N)n3)CC2)C1N
- IC50 [1]: > 3000 nM
- IC50 [2]: > 3000 nM
- IC50 [3]: > 3000 nM
- IC50 [4]: > 3000 nM
- IC50 [5]: > 3000 nM
- IC50 [6]: 176 nM
- viability, T/C (second compound 0.0316 µM, first compound 0.00949 µM): 58%
- viability, T/C (second compound 0.0316 µM, first compound 0.03 µM): 65.1%
- viability, T/C (second compound 0.0316 µM, first compound 0.0949 µM): 67.3%
- viability, T/C (second compound 0.0316 µM, first compound 0.3 µM): 58.4%
- viability, T/C (second compound 0.0316 µM, first compound 0.949 µM): 68.1%
- viability, T/C (second compound 0.0316 µM, first compound 3 µM): 73.6%
- viability, T/C (second compound 0.1 µM, first compound 0.00949 µM): 67%
- viability, T/C (second compound 0.1 µM, first compound 0.03 µM): 66%
- viability, T/C (second compound 0.1 µM, first compound 0.0949 µM): 71.4%
- viability, T/C (second compound 0.1 µM, first compound 0.3 µM): 57.9%
- viability, T/C (second compound 0.1 µM, first compound 0.949 µM): 73.2%
- viability, T/C (second compound 0.1 µM, first compound 3 µM): 72.5%
- viability, T/C (second compound 0.316 µM, first compound 0.00949 µM): 56.1%
- viability, T/C (second compound 0.316 µM, first compound 0.03 µM): 63.3%
- viability, T/C (second compound 0.316 µM, first compound 0.0949 µM): 50%
- viability, T/C (second compound 0.316 µM, first compound 0.3 µM): 53.6%
- viability, T/C (second compound 0.316 µM, first compound 0.949 µM): 62.5%
- viability, T/C (second compound 0.316 µM, first compound 3 µM): 68.4%
- viability, T/C (second compound 1 µM, first compound 0.00949 µM): 67.2%
- viability, T/C (second compound 1 µM, first compound 0.03 µM): 58%
- viability, T/C (second compound 1 µM, first compound 0.0949 µM): 47.1%
- viability, T/C (second compound 1 µM, first compound 0.3 µM): 52.1%
- viability, T/C (second compound 1 µM, first compound 0.949 µM): 59%
- viability, T/C (second compound 1 µM, first compound 3 µM): 58.5%
- viability, T/C (second compound 3.16 µM, first compound 0.00949 µM): 49.8%
- viability, T/C (second compound 3.16 µM, first compound 0.03 µM): 59.5%
- viability, T/C (second compound 3.16 µM, first compound 0.0949 µM): 49.8%
- viability, T/C (second compound 3.16 µM, first compound 0.3 µM): 54.2%
- viability, T/C (second compound 3.16 µM, first compound 0.949 µM): 48%
- viability, T/C (second compound 3.16 µM, first compound 3 µM): 56.2%
- viability, T/C (second compound 10 µM, first compound 0.00949 µM): 55.6%
- viability, T/C (second compound 10 µM, first compound 0.03 µM): 61.8%
- viability, T/C (second compound 10 µM, first compound 0.0949 µM): 41.7%
- viability, T/C (second compound 10 µM, first compound 0.3 µM): 50.3%
- viability, T/C (second compound 10 µM, first compound 0.949 µM): 50.9%
- viability, T/C (second compound 10 µM, first compound 3 µM): 46.7%

SMILES: CCN1CCN(Cc2ccc(Nc3ncc(F)c(-c4cc(F)c5nc(C)n(C(C)C)c5c4)n3)nc2)CC1 + CC1OCC2(CCN(c3cnc(Sc4ccnc(N)c4Cl)c(N)n3)CC2)C1N
- IC50 [1]: > 1000 nM
- IC50 [2]: > 1000 nM
- IC50 [3]: > 1000 nM
- IC50 [4]: > 1000 nM
- IC50 [5]: > 1000 nM
- IC50 [6]: > 1000 nM
- viability, T/C (second compound 0.0316 µM, first compound 0.00316 µM): 105%
- viability, T/C (second compound 0.0316 µM, first compound 0.01 µM): 105%
- viability, T/C (second compound 0.0316 µM, first compound 0.0316 µM): 95.6%
- viability, T/C (second compound 0.0316 µM, first compound 0.1 µM): 111%
- viability, T/C (second compound 0.0316 µM, first compound 0.316 µM): 124%
- viability, T/C (second compound 0.0316 µM, first compound 1 µM): 121%
- viability, T/C (second compound 0.1 µM, first compound 0.00316 µM): 111%
- viability, T/C (second compound 0.1 µM, first compound 0.01 µM): 105%
- viability, T/C (second compound 0.1 µM, first compound 0.0316 µM): 117%
- viability, T/C (second compound 0.1 µM, first compound 0.1 µM): 93.4%
- viability, T/C (second compound 0.1 µM, first compound 0.316 µM): 123%
- viability, T/C (second compound 0.1 µM, first compound 1 µM): 114%
- viability, T/C (second compound 0.316 µM, first compound 0.00316 µM): 108%
- viability, T/C (second compound 0.316 µM, first compound 0.01 µM): 108%
- viability, T/C (second compound 0.316 µM, first compound 0.0316 µM): 102%
- viability, T/C (second compound 0.316 µM, first compound 0.1 µM): 96.9%
- viability, T/C (second compound 0.316 µM, first compound 0.316 µM): 117%
- viability, T/C (second compound 0.316 µM, first compound 1 µM): 114%
- viability, T/C (second compound 1 µM, first compound 0.00316 µM): 94.3%
- viability, T/C (second compound 1 µM, first compound 0.01 µM): 95.9%
- viability, T/C (second compound 1 µM, first compound 0.0316 µM): 85.6%
- viability, T/C (second compound 1 µM, first compound 0.1 µM): 96%
- viability, T/C (second compound 1 µM, first compound 0.316 µM): 102%
- viability, T/C (second compound 1 µM, first compound 1 µM): 114%
- viability, T/C (second compound 3.16 µM, first compound 0.00316 µM): 81.1%
- viability, T/C (second compound 3.16 µM, first compound 0.01 µM): 84.8%
- viability, T/C (second compound 3.16 µM, first compound 0.0316 µM): 88.2%
- viability, T/C (second compound 3.16 µM, first compound 0.1 µM): 80%
- viability, T/C (second compound 3.16 µM, first compound 0.316 µM): 96.2%
- viability, T/C (second compound 3.16 µM, first compound 1 µM): 87.2%
- viability, T/C (second compound 10 µM, first compound 0.00316 µM): 74.8%
- viability, T/C (second compound 10 µM, first compound 0.01 µM): 66%
- viability, T/C (second compound 10 µM, first compound 0.0316 µM): 67.2%
- viability, T/C (second compound 10 µM, first compound 0.1 µM): 62.3%
- viability, T/C (second compound 10 µM, first compound 0.316 µM): 84.1%
- viability, T/C (second compound 10 µM, first compound 1 µM): 91.2%

SMILES: CN(C)C/C=C/C(=O)Nc1cc2c(Nc3ccc(F)c(Cl)c3)ncnc2cc1O[C@H]1CCOC1 + C=CC(=O)N1CCN(c2nc(OCC3CCCN3C)nc3c2CCN(c2cccc4cccc(C)c24)C3)CC1CC#N
- IC50 (curve of first compound, second compound 0.00949 µM): > 100 nM
- IC50 (curve of first compound, second compound 0.03 µM): > 100 nM
- IC50 (curve of first compound, second compound 0.0949 µM): > 100 nM
- IC50 (curve of first compound, second compound 0.3 µM): > 100 nM
- IC50 (curve of first compound, second compound 0.949 µM): > 100 nM
- IC50 (curve of first compound, second compound 3 µM): > 100 nM
- viability, T/C (second compound 0.00949 µM, first compound 0.000316 µM): 79.2%
- viability, T/C (second compound 0.00949 µM, first compound 0.001 µM): 95.1%
- viability, T/C (second compound 0.00949 µM, first compound 0.00316 µM): 88.5%
- viability, T/C (second compound 0.00949 µM, first compound 0.01 µM): 82.1%
- viability, T/C (second compound 0.00949 µM, first compound 0.0316 µM): 67.7%
- viability, T/C (second compound 0.00949 µM, first compound 0.1 µM): 74.4%
- viability, T/C (second compound 0.03 µM, first compound 0.000316 µM): 92.5%
- viability, T/C (second compound 0.03 µM, first compound 0.001 µM): 92.5%
- viability, T/C (second compound 0.03 µM, first compound 0.00316 µM): 90.8%
- viability, T/C (second compound 0.03 µM, first compound 0.01 µM): 78.8%
- viability, T/C (second compound 0.03 µM, first compound 0.0316 µM): 88.4%
- viability, T/C (second compound 0.03 µM, first compound 0.1 µM): 99.2%
- viability, T/C (second compound 0.0949 µM, first compound 0.000316 µM): 85.7%
- viability, T/C (second compound 0.0949 µM, first compound 0.001 µM): 84.9%
- viability, T/C (second compound 0.0949 µM, first compound 0.00316 µM): 82.3%
- viability, T/C (second compound 0.0949 µM, first compound 0.01 µM): 79.8%
- viability, T/C (second compound 0.0949 µM, first compound 0.0316 µM): 82.9%
- viability, T/C (second compound 0.0949 µM, first compound 0.1 µM): 95.2%
- viability, T/C (second compound 0.3 µM, first compound 0.000316 µM): 82.6%
- viability, T/C (second compound 0.3 µM, first compound 0.001 µM): 84.5%
- viability, T/C (second compound 0.3 µM, first compound 0.00316 µM): 76.1%
- viability, T/C (second compound 0.3 µM, first compound 0.01 µM): 73.4%
- viability, T/C (second compound 0.3 µM, first compound 0.0316 µM): 80.4%
- viability, T/C (second compound 0.3 µM, first compound 0.1 µM): 63%
- viability, T/C (second compound 0.949 µM, first compound 0.000316 µM): 63.9%
- viability, T/C (second compound 0.949 µM, first compound 0.001 µM): 69.8%
- viability, T/C (second compound 0.949 µM, first compound 0.00316 µM): 72.3%
- viability, T/C (second compound 0.949 µM, first compound 0.01 µM): 80%
- viability, T/C (second compound 0.949 µM, first compound 0.0316 µM): 72.5%
- viability, T/C (second compound 0.949 µM, first compound 0.1 µM): 73%
- viability, T/C (second compound 3 µM, first compound 0.000316 µM): 82.1%
- viability, T/C (second compound 3 µM, first compound 0.001 µM): 90.3%
- viability, T/C (second compound 3 µM, first compound 0.00316 µM): 82%
- viability, T/C (second compound 3 µM, first compound 0.01 µM): 73.8%
- viability, T/C (second compound 3 µM, first compound 0.0316 µM): 79%
- viability, T/C (second compound 3 µM, first compound 0.1 µM): 93.7%

— PubChem BioAssay AID2060912 (Molecular Pharmacology Branch, DTP, NCI, 2025)
